According to patent US5658913A, “Chemopreventive compounds and a preparation method and use thereof” (Kim; Nak Doo, priority 1993, dated 1997):
One block for each molecule: values may come before it.

Experiments:
[1] = system: p-nitrophenol hydroxylase; assay: p-Nitrophenol hydroxylase activity in combination with INAH (Experimental Example 2(2)); assay type: in vivo, Sprague-Dawley rat; conditions: INAH alone = 100%; INAH plus compound, each 200 mg/kg i.p.
Procedure: Thus, 1 mg of microsomes and 1mM p-nitrophenol were added to 0.6 ml of 0.1M potassium phosphate buffer(pH 6.8) to make the total volume of 0.9 ml. The resulting mixture was preliminarily reacted in a 37° C. incubator for 2 minutes and started to react while adding 1 mM NADPH(0.1 ml). After 3 minutes, 0.5 ml of 0.6N perchloric acid was added to develop a color and the absorbance at 546 nm was measured at once. The enzyme activity was expressed in terms of mole concentration of 4-nitrocatechol, the product of reaction for 1 minute.
(§1) In order to examine the effect of the compound of the present invention on the activity of the enzymes involved in phase I reaction when administered in combination with INAH, the experiments were carried out as follows:
(§2) Eight groups of Sprague-Dawley rat weighing 190±30 g were intraperitoneally administered with INAH(Group 1), or INAH plus the compounds of Examples 2 to 8(Groups 2 to 8), each in a dose of 200 mg/kg. The inventive compounds and INAH were diluted with corn oil and PBS respectively, and the test compounds were administered just after administering INAH.
(§3) The changes in the activity of p-nitrophenol hydroxylase and aniline hydroxylase were measured by following the same procedure as in Experimental Example 1(2-1) and (2-2). The activity of enzymes was determined by considering the activity of enzyme when INAH alone was administered as 100%.

[2] = system: aniline hydroxylase; assay: Aniline hydroxylase activity in combination with INAH (Experimental Example 2(2)); assay type: in vivo, Sprague-Dawley rat; conditions: for Aniline hydroxylase, Amount: INAH 200 mg/kg i.p., alone or plus compound 200 mg/kg; for Aniline hydroxylase, Activity: INAH alone = 100%; for Aniline hydroxylase, Activity / inhibition of expression of aniline hydroxylase induced by INAH: INAH plus compound, each 200 mg/kg i.p.; for inhibition of expression of aniline hydroxylase induced by INAH: in words
Procedure: Thus, 1 mg of microsomes and 5 mM aniline were added to 0.6 ml of 0.1M potassium phosphate buffer(pH 6.8) to make the total volume of 0.9 ml. 1 mM NADPH was added to make the total volume of 1.0 ml and the resulting mixture was reacted at 37° C. After 10 minutes, 20% trichloroacetic acid was added to stop the reaction and the reaction mixture was centrifuged. To 1 ml of supernatant were added 0.1 ml of 5% phenol and 0.1 ml of 2.5N sodium carbonate, dissolved in 0.1N NaOH. The mixture was allowed to stand for 30 minutes to develop a color and the absorbance at 630 nm was measured at once. The enzyme activity was expressed in terms of mole concentration of 4-aminophenol, the product of reaction for 1 minute.
as §1, §2, §3

[3] = system: Glutathion S-transferase (GST); assay: GST activity, administered alone or in combination with INAH (Experimental Example 4(2)); assay type: in vivo, Sprague-Dawley rat; conditions: for induction of expression of glutathione S-transferase when INAH is administered: in words; for increase of expression of glutathione S-transferase: Table 3
Procedure: Thus, to 25 μg(0.1 ml) of cytosol protein were added 0.1 mM […] and 1.0 mM glutathione as substrates, and 0.1M potassium phosphate were added to make the total volume of 1.0 ml(pH 6.4). The resulting mixture was allowed to stand at room temperature for 2 minutes and measured for its absorbance at 340 nm at intervals of 15 seconds during the period of 1 minute. As a reference, a cytosol protein denatured by heating was used. The activity of GST was calculated by measuring the change of absorbance for the period of 1 minute and employing the extinction coefficient of 9.6 mM^-1 cm^-1.
In order to examine the effect of the compound of the present invention on the activity of the enzymes involved in phase II reaction when administered alone or in combination with INAH, the experiments were carried out as follows:
Sixteen groups of Sprague-Dawley rat weighing 190±30 g were intraperitoneally administered with corn oil(Group 1), compounds of Examples 2 to 8(Groups 2 to 8), INAH(Group 9), or INAH plus the compounds of Examples 2 to 8(Groups 10 to 16), each in a dose of 200 mg/kg. The inventive compounds and INAH were diluted with corn oil, and the test compounds were administered just after administering INAH.
The change in the activity of GST was measured by following the same procedure as in Experimental Example 3(2). The activity of enzyme was determined by considering the activity of enzyme when corn oil or INAH alone was administered as 100%.

[4] = system: p-nitrophenol hydroxylase; assay: p-Nitrophenol hydroxylase activity in combination with INAH (Experimental Example 2(2)); assay type: in vivo, Sprague-Dawley rat; conditions: for p-Nitrophenol hydrolase, Amount: INAH 200 mg/kg i.p., alone or plus compound 200 mg/kg; for inhibition of expression of p-nitrophenol hydroxylase induced by INAH: INAH plus compound, each 200 mg/kg i.p., in words
[5] = system: enzymes involved in phase II reactions; conditions: literature; cited from earlier work
[6] = system: cancers; conditions: literature; cited from earlier work
[7] = system: cytochrome P-450 2E1; conditions: cited from earlier work; for effect on cytochrome P-450 2E1 expression: literature / inventors' submitted paper
[8] = system: P450 2E1; assay: Immunoblot analysis of P-450 2E1 expression when administered together with INAH (Experimental Example 2(1)); assay type: in vivo, Sprague-Dawley rat; conditions: 200 mg/kg i.p. plus INAH 200 mg/kg; FIG. 5
Procedure: To the first group as a control group, corn oil was administered intraperitoneally in an amount of 0.1 ml/200 g body weight. The second group was administered intraperitoneally INAH diluted with PBS in a dose of 200 mg/kg body weight. […] The hepatic microsomes were separated and subjected to Western blot analysis on SDS-PAGE by following the same procedure as in the above Experimental Example 1 (1).

[9] = INAH alone or INAH plus compound, each 200 mg/kg i.p.
[10] = INAH plus compound, each 200 mg/kg i.p., INAH alone = 100%
[11] = compound alone, 200 mg/kg i.p., corn oil = 100%

Molecule: C=C(C)CCSc1cnccn1 [Example 6, 2-(3-methyl-3-butenylthio)pyrazine]
p-Nitrophenol hydrolase, Activity [1]: 56%
Aniline hydroxylase, Amount [2]: 0.879 nmol/min/mg protein
Aniline hydroxylase, Activity [2]: 60%
Glutathion S-transferase, Amount [3, 9]: 2.375 nmol/min/mg protein
Glutathion S-transferase, Activity [3, 10]: 118%
Glutathion S-transferase, Amount ([3]; compound alone, 200 mg/kg i.p.): 2.558 nmol/min/mg protein
Glutathion S-transferase, Activity [3, 11]: 148%
p-Nitrophenol hydrolase, Amount [4]: 3.25 nmol/min/mg protein

induction of expression of glutathione S-transferase when INAH is administered ([3]; INAH plus compound): strongly induce expression of enzyme
Molecule: c1coc(CSc2cnccn2)c1 [Example 5, 2-(furfurylthio)pyrazine]
p-Nitrophenol hydrolase, Activity [1]: 61%
Aniline hydroxylase, Amount [2]: 0.972 nmol/min/mg protein
Aniline hydroxylase, Activity [2]: 67%
Glutathion S-transferase, Amount [3, 9]: 3.029 nmol/min/mg protein
Glutathion S-transferase, Activity [3, 10]: 151%
Glutathion S-transferase, Amount ([3]; compound alone, 200 mg/kg i.p.): 2.996 nmol/min/mg protein
increase of expression of glutathione S-transferase ([3]; compound alone, 200 mg/kg i.p.): ≥ 70%
Glutathion S-transferase, Activity [3, 11]: 174%
p-Nitrophenol hydrolase, Amount [4]: 3.53 nmol/min/mg protein

Molecule: c1ccc(CSc2cnccn2)cc1 [Example 2, 2-(benzylthio)pyrazine]
p-Nitrophenol hydrolase, Activity [1]: 78%
Aniline hydroxylase, Amount [2]: 1.070 nmol/min/mg protein
Aniline hydroxylase, Activity [2]: 74%
Glutathion S-transferase, Amount [3, 9]: 2.675 nmol/min/mg protein
Glutathion S-transferase, Activity [3, 10]: 133%
Glutathion S-transferase, Amount ([3]; compound alone, 200 mg/kg i.p.): 2.533 nmol/min/mg protein
Glutathion S-transferase, Activity [3, 11]: 147%
p-Nitrophenol hydrolase, Amount [4]: 4.52 nmol/min/mg protein

Molecule: Cc1c(-c2cnccn2)ssc1=S [Oltipraz]
induction of enzymes involved in phase II reactions [5]: ability of inducing enzymes of phase II reactions
cancer suppression [6]: can suppress lung and stomach cancers

Molecule: c1cnccn1 [pyrazine]
effect on cytochrome P-450 2E1 expression [7]: inducing cytochrome P-450 2E1

induction of expression of glutathione S-transferase when INAH is administered ([3]; INAH plus compound): strongly induce expression of enzyme
Molecule: CC(C)=CCSc1cnccn1 [Example 3, 2-(3-methyl-2-butenylthio)pyrazine]
p-Nitrophenol hydrolase, Activity [1]: 73%
Aniline hydroxylase, Amount [2]: 1.108 nmol/min/mg protein
Aniline hydroxylase, Activity [2]: 76%
Glutathion S-transferase, Amount [3, 9]: 3.071 nmol/min/mg protein
Glutathion S-transferase, Activity [3, 10]: 153%
Glutathion S-transferase, Amount ([3]; compound alone, 200 mg/kg i.p.): 2.708 nmol/min/mg protein
Glutathion S-transferase, Activity [3, 11]: 157%
p-Nitrophenol hydrolase, Amount [4]: 4.23 nmol/min/mg protein

Molecule: Cc1cc(C(C)(C)C)c(O)c(C(C)(C)C)c1 [butylhydroxytoluene, 3,5-ditert-butyl-4-hydroxytoluene]
induction of enzymes involved in phase II reactions [5]: shows a anti-cancer activity by inducing enzymes involved in phase II reactions

Molecule: C(=Cc1ccccc1)CSc1cnccn1 [Example 4, 2-(cinnamylthio)pyrazine]
p-Nitrophenol hydrolase, Activity [1]: 64%
Aniline hydroxylase, Amount [2]: 0.972 nmol/min/mg protein
Aniline hydroxylase, Activity [2]: 67%
Glutathion S-transferase, Amount [3, 9]: 2.683 nmol/min/mg protein
Glutathion S-transferase, Activity [3, 10]: 134%
Glutathion S-transferase, Amount ([3]; compound alone, 200 mg/kg i.p.): 2.892 nmol/min/mg protein
Glutathion S-transferase, Activity [3, 11]: 168%
p-Nitrophenol hydrolase, Amount [4]: 3.69 nmol/min/mg protein

Molecule: 2(3)-tert-butyl-4-hydroxyanisole [butylhydroxyanisole]
induction of enzymes involved in phase II reactions [5]: shows an anti-cancer activity by inducing enzymes involved in phase II reactions

Molecule: C=CCSCC=C [allylsulfide, diallylsulfide]
suppression of cytochrome P-450 2E1 induced by pyrazine ([7]; inventors' submitted paper): completely suppress cytochrome P-450 2E1 induced by the action of pyrazine
effect on cytochrome P-450 2E1 expression [7]: strongly inhibits the expression of cytochrome P-450 2E1
cancer suppression [6]: strongly suppress liver and colon cancers

suppression of enzyme (P450 2E1) expression induced by INAH [8]: strongest suppression
inhibition of expression of aniline hydroxylase induced by INAH [2]: superior inhibitory action
induction of expression of glutathione S-transferase when INAH is administered ([3]; INAH plus compound): strongly induce expression of enzyme
inhibition of expression of p-nitrophenol hydroxylase induced by INAH [4]: superior inhibitory action
Molecule: C=CC(C)Sc1cnccn1 (stereo not drawn) [Example 8]
p-Nitrophenol hydrolase, Activity [1]: 40%
Aniline hydroxylase, Amount [2]: 0.659 nmol/min/mg protein
Aniline hydroxylase, Activity [2]: 45%
Glutathion S-transferase, Amount [3, 9]: 2.808 nmol/min/mg protein
Glutathion S-transferase, Activity [3, 10]: 140%
Glutathion S-transferase, Amount ([3]; compound alone, 200 mg/kg i.p.): 3.290 nmol/min/mg protein
increase of expression of glutathione S-transferase ([3]; compound alone, 200 mg/kg i.p.): ≥ 70%
Glutathion S-transferase, Activity [3, 11]: 181%
p-Nitrophenol hydrolase, Amount [4]: 2.33 nmol/min/mg protein

inhibition of expression of aniline hydroxylase induced by INAH [2]: superior inhibitory action
inhibition of expression of p-nitrophenol hydroxylase induced by INAH [4]: superior inhibitory action
Molecule: CC=CCSc1cnccn1 [Example 7, 2-(2-butenylthio)pyrazine]
p-Nitrophenol hydrolase, Activity [1]: 40%
Aniline hydroxylase, Amount [2]: 0.712 nmol/min/mg protein
Aniline hydroxylase, Activity [2]: 49%
Glutathion S-transferase, Amount [3, 9]: 2.263 nmol/min/mg protein
Glutathion S-transferase, Activity [3, 10]: 113%
Glutathion S-transferase, Amount ([3]; compound alone, 200 mg/kg i.p.): 3.046 nmol/min/mg protein
increase of expression of glutathione S-transferase ([3]; compound alone, 200 mg/kg i.p.): ≥ 70%
Glutathion S-transferase, Activity [3, 11]: 177%
p-Nitrophenol hydrolase, Amount [4]: 2.33 nmol/min/mg protein

Molecule: NNC(=O)c1ccncc1 [INAH, isoniazid, reference compound]
p-Nitrophenol hydrolase, Activity [1]: 100%
Aniline hydroxylase, Amount [2]: 1.453 nmol/min/mg protein
Aniline hydroxylase, Activity [2]: 100%
Glutathion S-transferase, Amount [3, 9]: 2.008 nmol/min/mg protein
Glutathion S-transferase, Activity [3, 10]: 100%
p-Nitrophenol hydrolase, Amount [4]: 5.80 nmol/min/mg protein
